Like-named read-outs stand apart in the source and are kept apart here.
Columns and labels:
Type in all cases: cell-based
Huh7 = experiment: Cancer cell proliferation inhibition, MTS assay, 72 hours; conditions: Homo sapiens, Huh-7
Procedure: (§1) MTS assay was performed to evaluate the cancer cell proliferation inhibition (cancer cell apoptosis) effect of the compounds of examples of the present invention. Particularly, the assay was performed using the cancer cell lines GIST-T1, GIST-T1/816, GIST-430, GIST-430/654, GIST-R1, GIST-R3, M-NFS-60, RetParental (Ba/F3), Retwt (Ba/F3), RetV804M (Ba/F3), RET (LC2/ad-CDC6), FYN (MCP-1), FYN (FN), MDA-MB-231, Huh7, K562, T315I(Ba/F3), SK-MEL-28 and A375. Cell culture was performed using a medium suitable for each cell line.
(§2) Other cell lines were seeded in a 96-well plate containing the corresponding medium appropriate for each cell line at the density of 3,000 cells/well, followed by culture in a 5% CO2 and 37° C. incubator for 24 hours. The compounds of examples of the present invention were added to each well at the concentration of from the highest volume of 50 μM to every step of serial dilution. The solvent control, dimethylsulfoxide (DMSO), was treated at the same concentration of 0.05% (v/v) as the volume used for the treatment of the compounds above. Each cell line was cultured for 72 hours. To investigate the cell viability, the MTS and PMS (phenazine methosulfate) mixture provided in CellTiter 96® AQuous Non-Radioactive Cell Proliferation Assay Kit (Promega) was added to each cell culture medium, followed by additional culture at 37° C. for 2 hours. Then, OD450 was measured. Based on OD of the solvent control cells not treated with any compounds of the present invention, the cell proliferation inhibition rate was calculated according to the treatment concentration of each compound. At this time, the concentration of each compound that was able to inhibit cancer cell proliferation up to 50% was determined as IC50 (uM). IC50 of each compound was determined with three data sets and calculated by using Prism softwater (version 6.01, GraphPad).

T315I (Ba/F3) = target: T1, T315I (Ba/F3) (Homo sapiens, UniProt P00519, T315I, cells depend on it); experiment: Cancer cell proliferation inhibition, CCK-8, 72 hours; conditions: read-out: T315I (Ba/F3) IC50
T1 construct: fused on or other part: P11274 (Breakpoint cluster region protein)
Procedure: as §1
(§3) In the meantime, MDA-MB-231 and A375 cells were seeded in a 96well plate at the density of 2×10^3/100 μl/well, which stood for a day for attachment. The culture fluid was eliminated. After removing the culture medium, the medium was replaced with the culture medium containing the compounds of the present invention at 3-times serially diluted 9 concentrations (0.0015-10 μM) and the DMSO control, followed by incubation in a 37° C. CO2 incubator for 72 hours. On the other hand, K-562 and Ba/F3-T315I cells were seeded in a 96-well plate at the density of 1×10^4/90 μl/well. The plate containing K-562 cells was added with the culture medium containing the compounds of the present invention at 3-times serially diluted 9 concentrations (0.015-100 μM) and the DMSO control (10 μl/well). The plate containing Ba/F3-T315I cells was added with the culture medium containing the compounds of the present invention at 5-times serially diluted 9 concentrations (0.000256-100 μM) and the DMSO control (10 μl/well). The final concentration was made 0-10 μM and then the cells were cultured in a 37° C. CO2 incubator for 72 hours.
(§4) A375, K-562 and Ba/F3-T315I cells were added with CCK-8 solution at the concentration of 10 μl/well, followed by orbital shaking for 30 seconds. Then, the cells were cultured in a 37° C. CO2 incubator for 2 hours. OD450 was measured by using a microplate reader. The OD value of the well treated with the culture medium and CCK-8 solution alone was subtracted from the OD value measured above, followed by calculation of IC50 using GraphPad Prism 6 software.

A375 = experiment: as above
Procedure: as §1, §3, §4

K562 = experiment: as above
Procedure: as §1, §3, §4

MDA-MB-231 = experiment: Real time cell proliferation, IncuCyte ZOOM, 72 hours
RET (LC2/ad-CDC6) = experiment: Cancer cell proliferation inhibition, MTS assay, 72 hours; conditions: 72 h
Procedure: as §1, §2

SMILES | IC50 (Huh7) [nM] | GI50 (T315I (Ba/F3)) [nM] | IC50 (A375; Homo sapiens, A-375, 72 h) [nM] | IC50 (K562; Homo sapiens, K562, 72 h) [nM] | IC50 (MDA-MB-231; Homo sapiens, MDA-MB-231, 72 h) [nM] | IC50 (A375) [nM] | IC50 (K562) [nM] | IC50 (MDA-MB-231) [nM] | IC50 (RET (LC2/ad-CDC6)) [nM]
Cc1ccc(C(=O)Nc2ccc(CN3CCN(C)[C@H](C)C3)c(C(F)(F)F)c2)cc1C#Cc1cnc2c(Nc3cnn(C(C)C)c3)cccn12 [Example 81, (R)—N-(4-((3,4-dimethylpiperazin-1-yl)methyl)-3-(trifluoromethyl)phenyl)-3-((8-((1-isopropyl-1H-pyrazol-4-yl)amino)imidazo[1,2-a]pyridin-3-yl)ethynyl)-4-methylbenzamide] |  | 190 |  |  |  | 1960 | 43 | 1730 | 
COCCn1cc(Nc2cccn3c(C#Cc4cc(C(=O)Nc5cc(-n6cnc(C)c6)cc(C(F)(F)F)c5)ccc4C)cnc23)cn1 [Example 71] | 955 | 25.2 |  | 6 | 4730 |  |  |  | 
CCn1cc(Nc2cccn3c(C#Cc4cc(C(=O)Nc5ccc(CN6CC[C@H](N(C)C)C6)c(C(F)(F)F)c5)ccc4C)cnc23)cn1 [Example 54, (S)—N-(4-((3-(dimethylamino)pyrrolidin-1-yl)methyl)-3-(trifluoromethyl)phenyl)-3-((8-((1-ethyl-1H-pyrazol-4-yl)amino)imidazo[1,2-a]pyridin-3-yl)ethynyl)-4-methylbenzamide] |  | 30.9 | 454 | < 1 | 388 |  |  |  | > 10
Cc1ccc(C(=O)Nc2ccc(CN3CCN(C)[C@@H](C)C3)c(C(F)(F)F)c2)cc1C#Cc1cnc2c(Nc3cnn(CCCN(C)C)c3)cccn12 [Example 49, (S)-3-((8-((1-(3-(dimethylamino)propyl)-1H-pyrazol-4-yl)amino)imidazo[1,2-a]pyridin-3-yl)ethynyl)-N-(4-((3,4-dimethylpiperazin-1-yl)methyl)-3-(trifluoromethyl)phenyl)-4-methylbenzamide] |  | 217 | 1020 | 5 | 513 |  |  |  | > 10
COCCCn1cc(Nc2cccn3c(C#Cc4cc(C(=O)Nc5ccc(CN6CCN(C)[C@@H](C)C6)c(C(F)(F)F)c5)ccc4C)cnc23)cn1 [Example 46, (S)—N-(4-((3,4-dimethylpiperazin-1-yl)methyl)-3-(trifluoromethyl)phenyl)-3-((8-((1-(3-methoxypropyl)-1H-pyrazol-4-yl)amino)imidazo[1,2-a]pyridin-3-yl)ethynyl)-4-methylbenzamide] |  | 6.27 | 250 | 7 | 273 |  |  |  | > 10
CCN1CCN(Cc2ccc(NC(=O)c3ccc(C)c(C#Cc4cnc5c(Nc6cnn(CCN(C)C)c6)cccn45)c3)cc2C(F)(F)F)CC1 [Example 73] |  | 421 |  | < 1.5 | 916 |  |  |  | 
Cc1ccc(C(=O)Nc2ccc(CN3CCCN(C)CC3)c(C(F)(F)F)c2)cc1C#Cc1cnc2c(Nc3cnn(CCCN(C)C)c3)cccn12 [Example 39, 3-((8-((1-(3-(dimethylamino)propyl)-1H-pyrazol-4-yl)amino)imidazo[1,2-a]pyridin-3-yl)ethynyl)-4-methyl-N-(4-((4-methyl-1,4-diazepin-1-yl)methyl)-3-(trifluoromethyl)phenyl)benzamide] | 457 | 238 | 1520 | 43 | 1460 |  |  |  | 
Cc1cc(Nc2cccn3c(C#Cc4cc(C(=O)Nc5ccc(CN6CCC(N(C)C)C6)c(C(F)(F)F)c5)ccc4C)cnc23)no1 (stereo not shown) [Example 45, N-(4-((3-(dimethylamino)pyrrolidin-1-yl)methyl)-3-(trifluoromethyl)phenyl)-4-methyl-3-((8-((5-methylisoxazol-3-yl)amino)imidazo[1,2-a]pyridin-3-yl)ethynyl)benzamide] |  | 145 | 720 | 2 | 816 |  |  |  | > 10
Cc1ccc(NC(=O)C2(C(=O)Nc3ccc(F)cc3)CC2)cc1C#Cc1cnc2c(Nc3cnn(C)c3)cccn12 [Example 79] | 5650 | 5410 | > 10000 | 763 | > 10000 |  |  |  | 

Results, then the molecule that gave them:

IC50 (Huh7) [nM] | GI50 (T315I (Ba/F3)) [nM] | IC50 (A375; Homo sapiens, A-375, 72 h) [nM] | IC50 (K562; Homo sapiens, K562, 72 h) [nM] | IC50 (MDA-MB-231; Homo sapiens, MDA-MB-231, 72 h) [nM] | IC50 (A375) [nM] | IC50 (K562) [nM] | IC50 (MDA-MB-231) [nM] | IC50 (RET (LC2/ad-CDC6)) [nM] | SMILES
1800 | 663 | > 10000 | 2 | > 10000 |  |  |  |  | Cc1ccc(C(=O)Nc2ccc3ncsc3c2)cc1C#Cc1cnc2c(Nc3cnn(C)c3)cccn12 [Example 37, N-(benzo[d]thiazol-6-yl)-4-methyl-3-((8-((1-methyl-1H-pyrazol-4-yl)amino)imidazo[1,2-a]pyridin-3-yl)ethynyl)benzamide]
 | 2.67 | 285 | < 1 | 324 |  |  |  | > 10 | CCn1cc(Nc2cccn3c(C#Cc4cc(C(=O)Nc5ccc(CN6CC[C@@H](N(C)C)C6)c(C(F)(F)F)c5)ccc4C)cnc23)cn1 [Example 53, (R)—N-(4-((3-(dimethylamino)pyrrolidin-1-yl)methyl)-3-(trifluoromethyl)phenyl)-3-((8-((1-ethyl-1H-pyrazol-4-yl)amino)imidazo[1,2-a]pyridin-3-yl)ethynyl)-4-methylbenzamide]
 | 1140 | > 10000 | < 1 | > 10000 |  |  |  | > 10 | CCn1cc(Nc2cccn3c(C#Cc4cc(C(=O)Nc5ccc(N6CCOCC6)c(F)c5)ccc4C)cnc23)cn1 [Example 56, 3-((8-((1-ethyl-1H-pyrazol-4-yl)amino)imidazo[1,2-a]pyridin-3-yl)ethynyl)-N-(3-fluoro-4-morpholinophenyl)-4-methylbenzamide]
247 | 133 | 668 | 19 | 770 |  |  |  |  | Cc1ccc(C(=O)Nc2ccc(CN3CCCN(C)CC3)c(C(F)(F)F)c2)cc1C#Cc1cnc2c(Nc3cnn(C(C)C)c3)cccn12 [Example 38, 3-((8-((1-isopropyl-1H-pyrazol-4-yl)amino)imidazo[1,2-a]pyridin-3-yl)ethynyl)-4-methyl-N-(4-((4-methyl-1,4-diazepin-1-yl)methyl)-3-(trifluoromethyl)phenyl)benzamide]
33 |  | 221 | < 1.5 | 219 |  |  |  | > 10 | COCCCn1cc(Nc2cccn3c(C#Cc4cc(C(=O)Nc5ccc(CN6CCN(C)CC6)c(C(F)(F)F)c5)ccc4C)cnc23)cn1 [Example 65]
 | 3080 | > 10000 | 290 | > 10000 |  |  |  | > 10 | Cc1ccc(NC(=O)Nc2cc(C(C)(C)C(F)(F)F)on2)cc1C#Cc1cnc2c(Nc3cnn(C(C)C)c3)cccn12 [Example 85, 1-(3-((8-((1-isopropyl-1H-pyrazol-4-yl)amino)imidazo[1,2-a]pyridin-3-yl)ethynyl)-4-methylphenyl)-3-(5-(1,1,1-trifluoro-2-methylpropan-2-yl)isoxazol-3-yl)urea]
 | 86.3 | 406 | < 1 | 382 |  |  |  | > 10 | Cc1ccc(C(=O)Nc2ccc(CN3CCN(C)[C@@H](C)C3)c(C(F)(F)F)c2)cc1C#Cc1cnc2c(Nc3cnn(C(C)C)c3)cccn12 [Example 48, (S)—N-(4-((3,4-dimethylpiperazin-1-yl)methyl)-3-(trifluoromethyl)phenyl)-3-((8-((1-isopropyl-1H-pyrazol-4-yl)amino)imidazo[1,2-a]pyridin-3-yl)ethynyl)-4-methylbenzamide]
